Measurements published in patent US4883797A, “Derivatives of piperazine, method for making the same” (Ferrer Internacional, S.A., priority 1982, dated 1989).

Assays:
[1] = tested on: arterial pressure; test: Mean arterial pressure determined simultaneously with cerebral and carotid flows, anesthetized dogs; format: in vivo; conditions: endovenous, 5 mg/kg, variation over mean values before testing
Description: (§1) The measurements of cerebral and carotid flow changes (parameters 4 and 5) have been made using the most sophisticated methods. Both parameters have been measured by electromagnetic flowmetry (Narcomatic-Electromagnetic flowmeter) on 12 anesthetized dogs. The hemodynamic parameter average of animals before testing were pO2 =95.40±3.98; pCO2 =34.31.congruent.2.38 and pH-7.297±0.315 by endovenously administering the compounds of a 5 mg/kg dosis.
(§2) Simultaneously with the measuring of cerebral and carotid flows, the mean arterial pressure and cerebral vascular resistance (parameters 6,7) in each animal was determined. These parameters were measured according to the conventional method in Cardiovascular Pharmacology and the values were tabulated as the variation rate (Increase or Decrease) over mean values before testing.

[2] = tested on: carotid flow; test: Carotid flow change by electromagnetic flowmetry, anesthetized dogs; format: in vivo; conditions: endovenous, 5 mg/kg, variation over mean values before testing
Description: (§3) Both parameters have been measured by electromagnetic flowmetry (Narcomatic-Electromagnetic flowmeter) on 12 anesthetized dogs. The hemodynamic parameter average of animals before testing were pO2 =95.40±3.98; pCO2 =34.31.congruent.2.38 and pH-7.297±0.315 by endovenously administering the compounds of a 5 mg/kg dosis.

[3] = tested on: cerebral flow; test: Cerebral flow change by electromagnetic flowmetry, anesthetized dogs; format: in vivo; conditions: endovenous, 5 mg/kg, variation over mean values before testing
Description: as §3

[4] = tested on: cerebral vascular resistance; test: Cerebral vascular resistance determined simultaneously with cerebral and carotid flows, anesthetized dogs; format: in vivo; conditions: endovenous, 5 mg/kg, variation over mean values before testing
Description: as §1, §2

[5] = tested on: mice; test: Antiarrhythmic activity, method of Ferrini et al, endovenous administration to mice; format: in vivo; conditions: for ED50: Mus musculus, iv, read-out: Antiarrythmic activity ED50
Excerpt: Antiarrhythmic activity (Parameter 1) has been determined according to the method of Ferrini et al (Arzn.-Forsch., 29 (II), 9a, 1947-77, 1979).

[6] = in vivo; conditions: mouse, iv
[7] = tested on: mean arterial pressure; test: Decrease in mean arterial pressure (hypotension), anesthetized rats, endovenous; format: in vivo; conditions: for ED50: Rattus norvegicus, iv
Excerpt: (§4) The decrease in arterial pressure (Parameter 2) and the effects on heart rate (Parameter 3) have been evaluated according to the usual conventional methods used in Cardiovascular Pharmacology.

[8] = tested on: heart rate; test: Effect on heart rate (bradycardia), anesthetized rats, endovenous; format: in vivo; conditions: for ED50: Rattus norvegicus, iv
Excerpt: as §4

[9] = tested on: mice; conditions: endovenous

Compound	Arterial pressure Decrease [1] [%]	Carotid flow Decrease [2] [%]	Cerebral flow Increase [3] [%]	Cerebral vascular resistance Decrease [4] [%]	ED50 [5] [mg/kg]	LD50 [6] [mg/kg]	ED50 [7] [mg/kg]	ED50 [8] [mg/kg]	Antiarrythmic activity ED50 [5] [mg/kg]	Mean arterial pressure, Hypotension ED50 [7] [mg/kg]	Acute toxicity LD50 [9] [mg/kg]	Heart rate, Bradycardia ED50 [8] [mg/kg]
C(=C\c1ccccc1)/CN1CCN(C(c2ccccc2)c2ccccc2)CC1 [Cinnarizine 2HCI, reference compound]	43.0	62.8	76.7	68.0	–	–	–	–	–	–	–	–
O=C(CCCN1CCN(C(c2ccccc2)c2ccccc2)CC1)c1ccccc1 [Compound 11]	50.0	40.9	81.0	74.0	6.9	21 ± 1.72	0.43	2.1	–	–	–	–
C=CCN1CCN(C(c2ccccc2)c2ccccc2)CC1 [Aligeron 2HCI, reference compound]	36.0	21.3	64.0	61.0	–	–	–	–	4.4	1.3	38.5 ± 1.06	4.8
Cl.Cl.c1ccc(C(c2ccccc2)N2CCN(CC3CC3)CC2)cc1 [Compound 1, 1-Benzhydryl-4-cyclopropylmethyl-piperazine dihydrochloride]	30.0	68.0	55.0	55.0	4.2	25.6 ± 4.39	2.7	3.4	–	–	–	–
O=C1NCC(CN2CCN(C(c3ccccc3)c3ccccc3)CC2)O1 (stereo not drawn) [Compound 15]	45.5	60.0	38.5	60.3	16.5	40 ± 4.19	1.2	3	–	–	–	–
C=C(CN1CCCCC1)CN1CCN(C(c2ccccc2)c2ccccc2)CC1 [Compound 6, 1-Benzhydryl-4-(2-(1-piperidinylmethyl)-2-propenyl)piperazine]	58.0	22.0	70.0	75.3	4.3	8.6 ± 0.54	1.5	1.7	–	–	–	–
c1ccc(C(c2ccccc2)N2CCN(CCCC3(c4ccccc4)OCCO3)CC2)cc1 [Compound 13]	35.0	25.7	140.1	73.1	4	42.5 ± 3.05	1.5	2.6	–	–	–	–
CCOC(=O)C=CCN1CCN(C(c2ccccc2)c2ccccc2)CC1 [Compound 7]	27.3	13.0	32.0	44.7	23	100 ± 6.27	2.1	3.8	–	–	–	–
